Measurements from patent US20240018146A1, “COMPOSITIONS AND METHODS OF USING THE SAME FOR TREATMENT OF NEURODEGENERATIVE AND MITOCHONDRIAL DISEASE” (MITOKININ, INC., priority 2020, published 2024).
Values after ≈ are worked out from the molar mass of the structure shown. Where two headings read alike, the source gives them in different places.

How the values were obtained:
Kinetic solubility = type: physicochemical
HeLa MKYP cells [1] = experiment: Cell death measured by DAPI staining, with 1 μM FCCP/oligomycin or no toxin (no FO); type: cell-based
Procedure, shortened: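 HeLa MKYP cells were treated with compounds alongside 1 μM FCCP/oligomycin or no toxin for 6 or 6.5 h. Cell death was scored by DAPI staining, with H2O2 treatment as the death control.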

HeLa MKYP cells [2] = experiment: Human mitophagy assay (HeLa mKeima assay, FACS); type: cell-based
Procedure, shortened: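 HeLa cells carrying the pH-sensitive mtKeima tag incubated 16 h with compound at several concentrations, then 1 uM FCCP/oligomycin for 6 h. FACS detects mitochondria in lysosomes through the Keima emission shift, quantified as percentage of cells in mitophagy.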

[3] = Mitotoxicity / Mitotox safety margin (therapeutic window); type: cell-based
pS129 α-syn = experiment: Preformed fibril (PFF) model in primary neuron culture, pS129 α-syn; type: cell-based; details: increasing doses
Experimental: 4. Preformed Fibril Model
Mouse and human alpha-synuclein monomers have been sourced commercially, then pre-formed fibrils have been generated as per the detailed protocol provided by the MJFF. For in vitro experiments primary hippocampal neurons isolated from P0 pups were grown for 7 days after which PFFs at 5 ug/ml were introduced Pre-formed fibrils will be introduced via stereotactic injection into the striatum of wt (C57BL/6J, Jax #000664) and transgenic A53T mice (B6;C3-Tg(Prnp-SNCA*A53T)83Vle/J, Jax #004479). Cohorts of drug-treated (oral gavage) and untreated animals will then be allowed to age for up to 6 months, at which point they will be sacrificed and perfused. Brains will be removed and fixed, then sectioned for analysis. We anticipate that untreated A53T animals will show significant spreading of aggregated alpha-synuclein pathology and pS129 staining, as well as some possible neurodegeneration; wt animals are also expected to show pS129 synuclein staining and synuclein aggregation, albeit less than that seen in the A53T background.

[4] = Homo sapiens, HeLa, HeLa mKeima assay, read-out: Mitophagy EC50 (HeLa mKeima assay)
[5] = Homo sapiens, HeLa, read-out: Mitophagy induction EC50
[6] = read-out: Mitophagy induction EC50

Row | Compound | solubility kinetic (Kinetic solubility) [µM] | E105 death at 8.3 μM (no FO) (HeLa MKYP cells [1]; 8.3 μM compound, no FO) | Max cell death at 25 μM compound, 1 uM FO (%) (HeLa MKYP cells [1]; 25 μM compound) | Cell death at 25 μM (no FO) (%) (HeLa MKYP cells [1]; 25 μM compound, no FO) | E104 death at 25 μM (no FO) (HeLa MKYP cells [1]; 25 μM compound, no FO) | E103 max death with 1 μM FO (HeLa MKYP cells [1]; with 1 μM FO) | E102 max mitophagy, fold over DMSO (HeLa MKYP cells [2]; 1 μM FCCP/oligomycin) [fold over DMSO] | Mitophagy EC50 (HeLa mKeima assay) (μM) (HeLa MKYP cells [2]; HeLa mKeima assay) | E101 lowest effective dose (HeLa MKYP cells [2]; mitophagy, 1 μM FCCP/oligomycin) [µM] | Highest safe dose (cytotoxicity; no FO; safe means DAPI+ <20%) (HeLa MKYP cells [1]; no FO) [µM] | Max % death with 1 μM FO (HeLa MKYP cells [1]; with 1 μM FO) [%] | EC50 (HeLa MKYP cells [2]; [4]) [nM] | EC50 (HeLa MKYP cells [2]; [5]) [nM] | Mito-Safety Index (highest safe dose/EC50) [3] | Highest safe dose (μM) (mitotox or cytotox) [3] [µM] | pS129 α-syn (250-12) in primary neuron culture (pS129 α-syn) | pS129 α-syn (monomer) in primary neuron culture (pS129 α-syn) | pS129 α-syn in primary neuron culture (pS129 α-syn) | EC50 (HeLa MKYP cells [2]; [6]) [nM]
1 | FC(F)(F)c1cc2c(N[C@@H]3c4ccccc4CC[C@H]3N3CCOCC3)ncnc2[nH]1 (single isomer, unassigned) [EP-0038099] | 14.1 (≈ 5.89 µg/mL) | 2.41 | 13.7 | 4.11 | 4.11 | 13.71 | 7.78 | Minimal | 25.00 | – | – | – | – | – | – | – | – | – | –
2 | O=C1COCCN1[C@H]1CCc2ccccc2[C@@H]1Nc1ncnc2[nH]c(C(F)(F)F)cc12 (single isomer, unassigned) [EP-0038378] | 3.02 (≈ 1.3 µg/mL) | – | 15.4 | 4.55 | – | – | – | – | – | 25.0 | 15.4 | 2770 | > 25000 | – | – | – | – | – | –
3 | FC(F)(F)c1cc2c(N[C@H]3c4ccccc4CC[C@@H]3N3CCCCC3)ncnc2[nH]1 (single isomer, unassigned) [EP-0038392] | 187 (≈ 77.7 µg/mL) | – | 23.2 | 3.1 | – | – | – | – | – | 25.0 | 23.2 | 2770 | > 25000 | – | – | – | – | – | –
4 | FC1(F)CCN([C@H]2CCc3ccccc3[C@@H]2Nc2ncnc3[nH]c(C(F)(F)F)cc23)CC1 (single isomer, unassigned) [EP-0038393] | 1 (≈ 0.451 µg/mL) | – | 17.6 | 1.98 | – | – | – | – | – | 25.0 | 17.6 | 2430 | > 25000 | – | – | – | – | – | –
5 | C[C@H]1CN([C@H]2CCc3ccccc3[C@@H]2Nc2ncnc3[nH]c(C(F)(F)F)cc23)CCO1 (single isomer, unassigned) [EP-0040503] | – | – | – | – | – | – | – | – | – | 25.0 | 7.4 | – | 130 | 69.05 | 9.1 | reduces | reduces | reduces | –
6 | c1ccc2c(c1)OC[C@H](C1CCOCC1)[C@H]2Nc1ncnc2[nH]c(C3CC3)cc12 (single isomer, unassigned) [EP-0040587] | – | – | – | – | – | – | – | – | – | 25.0 | 21.5 | – | 90 | 230.81 | 21.5 | reduces | reduces | reduces | –
7 | Fc1ccc2c(c1)OC[C@H](N1C[C@@H]3COC[C@H]3C1)[C@H]2Nc1ncnc2[nH]c(C3CC3)cc12 (single isomer, unassigned) [EP-0040874] | – | – | – | – | – | – | – | – | – | 25.0 | 14.4 | – | – | 94.72 | 13.9 | reduces | reduces | reduces | 150
8 | c1ccc2c(c1)OCC(N1CC3CCOC3C1)C2Nc1ncnc2[nH]c(C3CC3)cc12 (single isomer, unassigned) [EP-0041668] | – | – | – | – | – | – | – | – | – | 25.0 | 8.0 | – | – | – | – | reduces | reduces | reduces | 140
9 | c1ccc2c(c1)OCC(N1CC3CCOC3C1)C2Nc1ncnc2[nH]c(C3CC3)cc12 (single isomer, unassigned) [EP-0041670] | – | – | – | – | – | – | – | – | – | 25.0 | 5.4 | – | – | – | – | reduces | reduces | reduces | 460
